Key:
Experiment in all cases: relative viability (nuclei count vs DMSO), 5 days (fraction); higher = more cells survive
CUDC-101 + Pemetrexed = compound: C#Cc1cccc(Nc2ncnc3cc(OC)c(OCCCCCCC(=O)NO)cc23)c1 [CUDC-101] + Nc1nc2[nH]cc(CCc3ccc(C(=O)N[C@@H](CCC(=O)O)C(=O)O)cc3)c2c(=O)[nH]1 [Pemetrexed] (partner 0.2 µM)
In short: (§1)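 Medians of duplicate plates are given as relative viability. That measure is the nuclei count in treated wells divided by the count in vehicle wells. Counts were taken on 4× images of lung cancer cell lines in 1536-well plates, 5 days after pin-tool dosing the day after seeding with one drug alone or a fixed anchor-drug dose plus five library-drug doses (not always all listed) in √10 steps.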

[1] = compound: C1=CC=C2C(=C1)N=C(S2)C(C#N)C3=NC(=NC=C3)NCCC4=CN=CC=C4 + COc1cc2c(Oc3ccc(NC(=O)C4(C(=O)Nc5ccc(F)cc5)CC4)cc3F)ccnc2cc1OCCCN1CCOCC1 [Foretinib] (partner 0.25 µM)
In short: as §1

[2] = compound: C1=CC=C2C(=C1)N=C(S2)C(C#N)C3=NC(=NC=C3)NCCC4=CN=CC=C4 + O=C(c1cc(Cc2n[nH]c(=O)c3ccccc23)ccc1F)N1CCN(C(=O)C2CC2)CC1 [Olaparib] (partner 8 µM)
In short: as §1

NVP-TAE684 + Tozasertib = compound: COc1cc(N2CCC(N3CCN(C)CC3)CC2)ccc1Nc1ncc(Cl)c(Nc2ccccc2S(=O)(=O)C(C)C)n1 [NVP-TAE684] + Cc1cc(Nc2cc(N3CCN(C)CC3)nc(Sc3ccc(NC(=O)C4CC4)cc3)n2)n[nH]1 [Tozasertib] (partner 0.1 µM)
In short: as §1

UMC-11 showed a relative viability (CUDC-101 + Pemetrexed; first compound 0.01 µM) of 0.78, a relative viability (CUDC-101 + Pemetrexed; first compound 0.03162 µM) of 0.72 and a relative viability (CUDC-101 + Pemetrexed; first compound 0.1 µM) of 0.639. It also gave a relative viability (CUDC-101 + Pemetrexed; first compound 0.3162 µM) of 0.415, a relative viability (CUDC-101 + Pemetrexed; first compound 1 µM) of 0.219 and a relative viability ([1]; first compound 0.005 µM) of 0.908. It also gave a relative viability ([1]; first compound 0.01581 µM) of 0.993, a relative viability ([1]; first compound 0.05 µM) of 0.999 and a relative viability ([1]; first compound 0.1581 µM) of 1.01. The relative viability ([1]; first compound 0.5 µM) was 1.05, the relative viability ([2]; first compound 0.01581 µM) was 0.344 and the relative viability ([2]; first compound 0.05 µM) was 0.349. It also gave a relative viability ([2]; first compound 0.1581 µM) of 0.366, a relative viability ([2]; first compound 0.5 µM) of 0.382 and a relative viability (NVP-TAE684 + Tozasertib; first compound 0.2 µM) of 0.234. For the same cell line, the relative viability (NVP-TAE684 + Tozasertib; first compound 0.6325 µM) was 0.199 and the relative viability (NVP-TAE684 + Tozasertib; first compound 2 µM) was 0.197.
